Like-named read-outs stand apart in the source and are kept apart here. One block for each molecule: values may come before it.
Legend:
[1] = system: substance P in human plasma
Procedure: (§1) To 50 μL portions of human plasma prepared in the same manner as in Example 1 was added a 400 mg/mL aqueous solution of glucose (special grade; Kanto Chemical Co., Inc.) prepared with purified water (100 μL), followed by mixing. […] The concentrations of substance P in the thawed portions of sample N were measured in the same manner as in Example 1 to calculate the residual rates, which are the index for the stability of substance P in plasma.
(§2) To 50 μL portions of human plasma prepared in the same manner as in Example 1 was added a 200 pg/mL aqueous solution of substance P (50 μL) to prepare six portions of sample.
(§3) After the preparation, the samples were frozen at −80° C. and then thawed at room temperature 0 day, 3 days and 13 days after the freezing. The concentrations of substance P in the thawed samples were measured in the same manner as in Example 1 using Substance P EIA Kit (Cayman) to calculate the residual rates, which are the index for the stability of substance P in plasma.

[2] = system: neutral endopeptidase (NEP); assay: Effect of addition of a saccharide on degradation of substance P by neutral endopeptidase (NEP); assay type: biochemical; conditions: for Degradation of substance P by NEP: result in words
Procedure: Similarly, samples each comprising 150 μL of human plasma, 150 μL of a 200 pg/mL aqueous solution of substance P, 300 μL of a 400 mg/mL aqueous solution of glucose and 50 μL of an enzyme solution (respective NEP concentrations; 0 U/mL, 0.1 U/mL, 1.0 U/mL and 10.0 U/mL) were prepared.
Further, samples each comprising 150 μL of human plasma, 150 μL of a 200 pg/mL aqueous solution of substance P, 300 μL of a 10 mmol/L aqueous solution of phosphoramidon and 50 μL of an enzyme solution (respective NEP concentrations; 0 U/mL, 0.1 U/mL, 1.0 U/mL and 10.0 U/mL) were prepared.

[3] = system: substance P in human plasma; assay: Stabilization of substance P in plasma by addition of a saccharide when frozen at −80° C.; conditions: Example 6: same additive solutions
Procedure: as §1, §2, §3

[4] = Stability of substance P in aqueous solution without plasma (Substance P EIA Kit); assay type: physicochemical; conditions: for Concentration of substance P measured in the substance P solution: 200 pg/mL aqueous solution
Procedure: When the 200 pg/mL aqueous solution of substance P was, without being mixed with the human plasma, subjected to measurement of substance P under the present measurement conditions including incubation at 4° C. for 18 hours, the obtained value was 226.16 pg/mL. […] On the other hand, as shown in the experiment on the control sample, when the sample having the initial substance P concentration of 116.93 pg/mL was subjected to measurement under the present measurement conditions including incubation at 4° C. for 18 hours, the obtained average substance P concentration was 60.57 pg/mL.
The concentrations of substance P in the human plasma used for the preparation of the samples subjected to the incubation for 16 hours, 24 hours and 48 hours were determined to be 15.02 pg/mL, 4.95 pg/mL and 5.71 pg/mL, respectively. The concentrations of substance P in the substance P solution used for the preparation of the samples subjected to the incubation for 16 hours, 24 hours and 48 hours were determined to be 211.1 pg/mL, 208.4 pg/mL and 197.8 pg/mL, respectively. From these measurement values, the theoretical values of the concentrations of substance P in the samples were calculated in the same manner as in Example 1, and the residual rates were calculated from the theoretical values and the measurement values.

[5] = system: substance P in human plasma; conditions: 4° C. 18 hours
Procedure: To 50 μL portions of the human plasma were respectively added a 200 mg/mL aqueous solution of xylose, a 200 mg/mL aqueous solution of glucose, a 200 mg/mL aqueous solution of mannose and a 200 mg/mL aqueous solution of galactose (100 μL each), followed by mixing.
Measurement of substance P in samples A to D and the control sample was carried out in duplicate in the following manner, using Substance P EIA Kit (Cayman) according to the manual attached to the kit.
The above kit is a kit for enzyme immunoassay by the competitive method using, as a competitive substance, substance P bound to acetylcholine esterase (substance P AchE tracer). The measurement with this kit is carried out by allowing substance P in a sample and the competitive substance to competitively react with anti-substance P antibody on a solid phase and reacting acetylcholine esterase in the competitive substance bound to the anti-substance P antibody on a solid phase with Ellman's reagent to develop color, followed by the measurement of the absorbance. Then, the concentration of substance P in the sample can be determined based on a previously prepared calibration curve. […]

Residual rate, Day 3 [1]: 26.4%
Residual rate, Day 13 [1]: 32.6%
Molecule: O=C([O-])CN(CCN(CC(=O)[O-])CC(=O)O)CC(=O)O.[Na+].[Na+] [EDTA•2Na, ethylenediaminetetraacetic acid.disodium]

Degradation of substance P by NEP [2]: inhibited
Residual rate, Day 3 ([1]; human, 3 days): 29.0%
Residual rate, Day 13 ([1]; human, 13 days): 25.6%
Molecule: CC(C)C[C@H](NP(=O)(O)O[C@@H]1O[C@@H](C)[C@H](O)[C@@H](O)[C@H]1O)C(=O)N[C@@H](Cc1c[nH]c2ccccc12)C(=O)O [Phosphoramidon, phosphoramidon]

Molecule: magnesium gluconate
Residual rate, Day 3 ([3]; thawed 3 days after the freezing): 42.6%
Residual rate, Day 13 ([3]; thawed 13 days after the freezing): 40.1%

Molecule: substance P
Residual rate of substance P, NEP concentration 0 U/mL ([2]; human plasma + substance P ± 400 mg/mL glucose or 10 mmol/L phosphoramidon solution, enzyme solution NEP 0 U/mL): 100.0%
Residual rate of substance P, NEP concentration 0.1 U/mL ([2]; human plasma + substance P ± 400 mg/mL glucose or 10 mmol/L phosphoramidon solution, enzyme solution NEP 0.1 U/mL): 102.2%
Residual rate of substance P, NEP concentration 1.0 U/mL ([2]; human plasma + substance P ± 400 mg/mL glucose or 10 mmol/L phosphoramidon solution, enzyme solution NEP 1.0 U/mL): 93.3%
Residual rate of substance P, NEP concentration 10.0 U/mL ([2]; human plasma + substance P ± 400 mg/mL glucose or 10 mmol/L phosphoramidon solution, enzyme solution NEP 10.0 U/mL): 84.0%
Degradation of substance P by NEP [2]: degraded by NEP
Concentration of substance P measured in the substance P solution ([4]; incubation 16 hours at 4° C.): 0.2111 ng/mL
Concentration of substance P measured in the substance P solution ([4]; incubation 24 hours at 4° C.): 0.2084 ng/mL
Concentration of substance P measured in the substance P solution ([4]; incubation 48 hours at 4° C.): 0.1978 ng/mL
Stability of substance P in the aqueous solution ([4]; 4° C. 18 hours, result in words): stable
Concentration of substance P measured in the 200 pg/mL aqueous solution of substance P ([4]; without human plasma, incubation at 4° C. for 18 hours): 0.22616 ng/mL
Average substance P concentration in plasma without saccharide ([5]; control sample, initial substance P concentration 116.93 pg/mL): 60.57 pg/mL
Stability of substance P in the presence of plasma ([5]; no saccharide, result in words): unstable
